According to PubChem BioAssay AID330 (DTP/NCI, 2004):
Toxic doses and inconclusive results are not listed.

Test system: P388 leukemia ip, CD2F1 mice, survival T/C
Assay: NCI In Vivo Anticancer Drug Screen. Data for tumor model P388 Leukemia (intraperitoneal) in CD2F1 (CDF1) mice
Conditions: endpoint: median survival time, higher = longer survival
Method in brief: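 Mice carrying the transplanted tumor received test compound or vehicle. Survival was recorded in each group, and the value is the treated-group measurement divided by that of the vehicle-treated control group.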

[1] = dose: 50.0 mg/kg/injection, schedule: Q01DX009 (ip), vehicle: saline with Tween-80
[2] = dose: 50.0 mg/kg/injection, schedule: Q01DX005 (ip), vehicle: Klucel (hydroxypropylcellulose) (HPC)
[3] = dose: 100.0 mg/kg/injection, schedule: Q01DX005 (ip), vehicle: Klucel (hydroxypropylcellulose) (HPC)
[4] = dose: 200.0 mg/kg/injection, schedule: Q01DX005 (ip), vehicle: Klucel (hydroxypropylcellulose) (HPC)
[5] = dose: 100.0 mg/kg/injection, schedule: Q04DX003 (ip), vehicle: saline with Tween-80

In the case of O=C1CCSC(=S)N1c1ccc(F)cc1, the T/C (dose: 50.0 mg/kg/injection, schedule: Q01DX009 (ip), vehicle: suspension in saline) is reported as 99 % of control, the T/C (dose: 100.0 mg/kg/injection, schedule: Q01DX009 (ip), vehicle: suspension in saline) is reported as 106 % of control and the T/C (dose: 200.0 mg/kg/injection, schedule: Q01DX009 (ip), vehicle: suspension in saline) is reported as 90 % of control.

For CCn1c2ccccc2c2cc(N=Cc3cccc([N+](=O)[O-])c3)ccc21, the T/C [1] was 97 % of control, the T/C (dose: 100.0 mg/kg/injection, schedule: Q01DX009 (ip), vehicle: saline with Tween-80) was 98 % of control and the T/C (dose: 200.0 mg/kg/injection, schedule: Q01DX009 (ip), vehicle: saline with Tween-80) was 88 % of control.

With CC(NC(=O)C(NC(=O)c1ccc[n+](Cc2ccccc2)c1)C(C)C)C(N)=O (configuration not stated) the T/C (dose: 7.5 mg/kg/injection, schedule: Q01DX005 (ip), vehicle: saline) was 109 % of control, the T/C (dose: 15.0 mg/kg/injection, schedule: Q01DX005 (ip), vehicle: saline) was 104 % of control and the T/C (dose: 30.0 mg/kg/injection, schedule: Q01DX005 (ip), vehicle: saline) was 98 % of control.

In the case of O=C(O)Cc1cn2cc(Br)ccc2n1, the T/C (dose: 100.0 mg/kg/injection, schedule: Q01DX001 (ip), vehicle: saline with Tween-80) is reported as 105 % of control, the T/C (dose: 200.0 mg/kg/injection, schedule: Q01DX001 (ip), vehicle: saline with Tween-80) is reported as 109 % of control and the T/C (dose: 400.0 mg/kg/injection, schedule: Q01DX001 (ip), vehicle: saline with Tween-80) is reported as 104 % of control.

Cc1cccc(Nc2ncnc3nc[nH]c23)c1 was tested, and the T/C [2] was 100 % of control, the T/C [3] was 91 % of control and the T/C [4] was 94 % of control.

With Cc1ccc(NC(=O)CNCC(C)C)cc1Cl the T/C [2] was 100 % of control, the T/C [3] was 109 % of control and the T/C [4] was 100 % of control.

For CCOc1nc(N)c(C(=O)c2ccc(O)c(O)c2)s1, the T/C [2] was 111 % of control, the T/C [3] was 109 % of control and the T/C [4] was 87 % of control.

In the case of COc1ccccc1N1CCN(CCc2c[nH]c3cc4c(cc23)OCO4)CC1, the T/C (dose: 6.25 mg/kg/injection, schedule: Q01DX009 (ip), vehicle: saline with Tween-80) is reported as 92 % of control, the T/C (dose: 12.5 mg/kg/injection, schedule: Q01DX009 (ip), vehicle: saline with Tween-80) is reported as 100 % of control and the T/C (dose: 12.5 mg/kg/injection, schedule: Q04DX003 (ip), vehicle: saline with Tween-80) is reported as 114 % of control. The T/C (dose: 18.75 mg/kg/injection, schedule: Q01DX009 (ip), vehicle: Klucel (hydroxypropylcellulose) (HPC)) was 108 % of control, the T/C (dose: 25.0 mg/kg/injection, schedule: Q01DX009 (ip), vehicle: saline with Tween-80) was 101 % of control and the T/C (dose: 25.0 mg/kg/injection, schedule: Q04DX003 (ip), vehicle: saline with Tween-80) was 120 % of control. For the same compound, the T/C (dose: 37.5 mg/kg/injection, schedule: Q01DX009 (ip), vehicle: Klucel (hydroxypropylcellulose) (HPC)) was 101 % of control, the T/C [1] was 104 % of control and the T/C (dose: 50.0 mg/kg/injection, schedule: Q04DX003 (ip), vehicle: saline with Tween-80) was 123 % of control. For the same compound, the T/C (dose: 75.0 mg/kg/injection, schedule: Q01DX009 (ip), vehicle: Klucel (hydroxypropylcellulose) (HPC)) was 88 % of control and the T/C [5] was 121 % of control.

For CCOC(OCC)c1ccc(C)cc1, the T/C [5] was 103 % of control, the T/C (dose: 200.0 mg/kg/injection, schedule: Q04DX003 (ip), vehicle: saline with Tween-80) was 108 % of control and the T/C (dose: 400.0 mg/kg/injection, schedule: Q04DX003 (ip), vehicle: saline with Tween-80) was 97 % of control.

In the case of NC(=O)/C(N=Nc1ccccc1)=N\Nc1ccccc1, the T/C (dose: 6.25 mg/kg/injection, schedule: Q01DX005 (ip), vehicle: Klucel (hydroxypropylcellulose) (HPC)) is reported as 91 % of control, the T/C (dose: 12.5 mg/kg/injection, schedule: Q01DX005 (ip), vehicle: Klucel (hydroxypropylcellulose) (HPC)) is reported as 91 % of control and the T/C (dose: 25.0 mg/kg/injection, schedule: Q01DX005 (ip), vehicle: Klucel (hydroxypropylcellulose) (HPC)) is reported as 87 % of control.

In the case of CCOC(=O)N(C)N=NCCCl, the T/C (dose: 7.5 mg/kg/injection, schedule: Q01DX005 (ip), vehicle: saline with Tween-80) is reported as 117 % of control, the T/C (dose: 15.0 mg/kg/injection, schedule: Q01DX005 (ip), vehicle: saline with Tween-80) is reported as 118 % of control and the T/C (dose: 30.0 mg/kg/injection, schedule: Q01DX005 (ip), vehicle: saline with Tween-80) is reported as 175 % of control. The T/C (dose: 60.0 mg/kg/injection, schedule: Q01DX005 (ip), vehicle: saline with Tween-80) was 94 % of control.
